Measurements reported in US20160257697A1, “THIOPHENE-SUBSTITUTED TETRACYCLIC COMPOUNDS AND METHODS OFUSE THEREOF FOR THE TREATMENT OF VIRAL DISEASES” (priority 2013, published 2016).
Where two headings read alike, the source gives them in different places.

Assays:
Test in all cases: microbe, parasite or virus in culture
Assay type in all cases: cell-based, Hepatitis C virus (HCV)
Details in all cases: Replicon Assay A
[1] = tested on: HCV replicon 1A
Outline: (§1)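 HCV replicon RNA levels were quantified by TaqMan RT-PCR after 3-day compound exposure (0.5% DMSO, 5% FBS). Cyclophilin RNA, co-amplified in the same reaction, served as endogenous control; Ct values were converted to RNA amounts using linear regression standard curves.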

[2] = tested on: HCV replicon 1AY93H
Outline: as §1

[3] = tested on: HCV replicon 2B
Outline: as §1

[4] = read-out: 1A Y93H IC50, replicon 1AY93H
[5] = read-out: 1A Y93H IC50, HCV replicon 1A Y93H
[6] = read-out: 2B IC50, HCV replicon 2B
[7] = Hepatitis C virus, read-out: 1A Y93H IC50 (nM), replicon 1AY93H
[8] = Hepatitis C virus, read-out: 2B IC50 (nM), replicon 2B

| Compound | IC50 ([1]; replicon 1A) [nM] | IC50 [2, 4] [nM] | IC50 ([3]; read-out: 2B IC50, replicon 2B) [nM] | other results |
| --- | --- | --- | --- | --- |
| CCc1ccc(C2Oc3cc(-c4cnc([C@@H]5CCCN5C(=O)C(NC(=O)OC)C5CCOC(C)(C)C5)[nH]4)cc(F)c3-c3cc4cc(-c5cnc([C@@H]6CCCN6C(=O)C(NC(=O)OC)C6CCOC(C)(C)C6)[nH]5)ccc4n32)s1 (single isomer, unassigned) [Compound 298] | 0.0784 | 1.22 | 2.09 |  |
| COC(=O)NC(C(=O)N1CCC[C@H]1c1ncc(-c2ccc3c(c2)cc2n3C(c3ccc(C4CC4)s3)Oc3cc(-c4cnc([C@@H]5C[C@@H](F)CN5C(=O)[C@@H](NC(=O)OC)C(C)C)[nH]4)cc(F)c3-2)[nH]1)C(C)(C)F (single isomer, unassigned) [Compound 115] | 0.0011 | 0.05 | 9.84 |  |
| COC(=O)N[C@H](C(=O)N1CCC[C@H]1c1ncc(-c2ccc3c(c2)OC(c2cc4ccccc4s2)n2c-3cc3cc(-c4cnc([C@@H]5C[C@@H](F)CN5C(=O)[C@@H](NC(=O)OC)C5CCOCC5)[nH]4)ccc32)[nH]1)C(C)C (single isomer, unassigned) [Compound 627] |  |  |  | IC50 ([1]; HCV replicon 1A): 0.00302 nM; IC50 [2, 5]: 0.0157 nM; IC50 [3, 6]: 0.631 nM |
| CCc1ccc(C2Oc3cc(-c4cnc([C@@H]5CCCN5C(=O)[C@@H](NC(=O)OC)C(C)C)[nH]4)cc(F)c3-c3cc4cc(-c5cnc([C@@H]6C[C@H]7C[C@H]7N6C(=O)C(NC(=O)OC)C6CCOC(C)(C)C6)[nH]5)ccc4n32)s1 (single isomer, unassigned) [Compound 197] | 0.0021 | 0.1 | 0.47 |  |
| COC(=O)N[C@H](C(=O)N1CCC[C@H]1c1cnc(-c2ccc3c(c2)cc2n3C(c3cc4ccccc4s3)Oc3cc(-c4cnc([C@@H]5CCCN5C(=O)[C@@H](NC(=O)OC)C5CCOCC5)[nH]4)ccc3-2)[nH]1)C1CCOCC1 (single isomer, unassigned) [Compound 811] |  |  |  | IC50 ([1]; HCV replicon 1A): 0.042 nM; IC50 [2, 5]: 0.058 nM; IC50 [3, 6]: 0.664 nM |
| COC(=O)N[C@H](C(=O)N1CCC[C@H]1c1ncc(-c2cc(F)c3c(c2)OC(c2csc4ccccc24)n2c-3cc3cc(-c4cnc([C@@H]5CCCN5C(=O)[C@@H](NC(=O)OC)C(C)C)[nH]4)ccc32)[nH]1)C(C)C (single isomer, unassigned) [Compound 323] |  |  |  | IC50 ([1]; Hepatitis C virus, replicon 1A): 0.0021 nM; IC50 [2, 7]: 2.51 nM; IC50 [3, 8]: 15.8 nM |
| CCc1ccc(C2Oc3cc(-c4cnc([C@@H]5CCCN5C(=O)C(NC(=O)OC)C5CCOC(C)(C)C5)[nH]4)cc(F)c3-c3cc4cc(-c5cnc([C@@H]6CCCN6C(=O)C(NC(=O)OC)C6CCOC(C)(C)C6)[nH]5)ccc4n32)s1 (single isomer, unassigned) [Compound 292] | 0.0027 | 0.044 | 0.106 |  |
| COC(=O)NC(C(=O)N1CCC[C@H]1c1ncc(-c2cc(F)c3c(c2)OC(c2ccc(C4CC4)s2)n2c-3cc3cc(-c4cnc([C@@H]5CCCN5C(=O)[C@@H](NC(=O)OC)C(C)C)[nH]4)ccc32)[nH]1)C1CCOC(C)(C)C1 (single isomer, unassigned) [Compound 210] | 0.0018 | 0.52 | 0.33 |  |
| COC(=O)NC(C(=O)N1CCC[C@H]1c1ncc(-c2ccc3c(c2)cc2n3C(c3ccc(CC(F)(F)F)s3)Oc3cc(-c4cnc([C@@H]5CCCN5C(=O)[C@@H](NC(=O)OC)C(C)C)[nH]4)cc(F)c3-2)[nH]1)C1C[C@@H](C)O[C@@H](C)C1 (stereo partly drawn) [Compound 381] |  |  |  | IC50 ([1]; Hepatitis C virus, replicon 1A): 0.0014 nM; IC50 [2, 7]: 0.141 nM; IC50 [3, 8]: 0.181 nM |
| COC(=O)N[C@H](C(=O)N1CCC[C@H]1c1nc(-c2ccc3c(c2)OC(c2ccc(C4CC4)s2)n2c-3cc3cc(-c4c[nH]c([C@@H]5CCCN5C(=O)[C@@H](NC(=O)OC)C5CCOCC5)n4)ccc32)c[nH]1)C1CCOCC1 (mixture of isomers) [Compound 728] |  |  |  | IC50 ([1]; Hepatitis C virus, HCV replicon 1A): 0.022 nM; IC50 ([2]; Hepatitis C virus, read-out: 1A Y93H IC50, HCV replicon 1A Y93H): 0.02 nM; IC50 ([3]; Hepatitis C virus, read-out: 2B IC50, HCV replicon 2B): 0.022 nM |
| CCc1ccc(C2Oc3cc(-c4cnc([C@@H]5CCCN5C(=O)[C@@H](NC(=O)OC)C(C)C)[nH]4)cc(F)c3-c3cc4cc(-c5cnc([C@@H]6CCCN6C(=O)C(NC(=O)OC)C6CCOC(C)(C)C6)[nH]5)ccc4n32)s1 (single isomer, unassigned) [Compound 148] | 0.0919 | 10.2 | 13.2 |  |
| COCc1ccc(C2Oc3cc(-c4cnc([C@@H]5CCCN5C(=O)[C@@H](NC(=O)OC)C(C)C)[nH]4)cc(F)c3-c3cc4cc(-c5cnc([C@@H]6CCCN6C(=O)[C@@H](NC(=O)OC)[C@@H]6C[C@@H](C)O[C@@H](C)C6)[nH]5)ccc4n32)s1 (single isomer, unassigned) [Compound 535] |  |  |  | IC50 ([1]; HCV replicon 1A): 0.00895 nM; IC50 [2, 5]: 0.0295 nM; IC50 [3, 6]: 0.0736 nM |
